Eight compounds from patent US7049445B2, “Bicyclic compounds” (Asahi Kasei Pharma Corporation, priority 2000, dated 2006) can be followed below.

The target in data set [1] is T1, human β3 (Homo sapiens, UniProt P13945).
T1 construct: used as a probe to obtain the full length human β3 gene from a human genomic library; expressed in transfected cells; host or cells: CHO (Chinese hamster ovary) cells, pcDNA3 vector
Kind of data set: Human β3-agonist activities (cAMP in transfected CHO cells). The note with it: CHO cells transfected with human β3 gene; for EC50: cAMP quantitated by EIA after 30 minutes; for Emax: read-out: Intrinsic activity* (relative activities as compared with isoproterenol). The format is cell-based. The procedure:
Human β3-agonist activities were determined using CHO (Chinese hamster ovary) cells transfected with pcDNA3 (mfd. by Invitrogen) to which human β3 gene had been inserted. Human β3 fragment was first obtained from human adipose tissue cDNA (mfd. by Clonetech) by PCR using the primer of β3 (Krief, et al., J. Clin. Invest., vol. 91, pp. 344-349 (1993)). The human β3 fragment thus obtained was used as a probe to obtain the full length human β3 gene from a human genomic library (mfd. by Clonetech). The above cells were cultured in a Ham F-12 medium supplemented with 10% fetal bovine serum, 400 μg/mL geneticin (Gibco BRL), 100 U/mL penicillin and 100 μg/mL streptomycin. After placing these cells (5×10^5) into a 6-well plate and culturing them for 24 hours, they were allowed to stand on a serum-free Ham F-12 medium for 2 hours. The compound was first dissolved in DMSO, diluted to a concentration of 10^−6 M with Ham F-12 supplemented with 1 mM isobutylmethylxanthine and 1 mM ascorbic acid, and then added to the cells. After the cells were cultured for 30 minutes, the medium was removed, followed by addition of 0.5 mL of 1 N NaOH. The medium was allowed to stand for 20 minutes and then 0.5 mL of 1 N acetic acid was added to the medium. The medium was stirred and centrifuged, followed by quantitating cAMP with cAMP EIA kit (mfd. by Cayman). With respect to eight compounds among the compounds described in Examples, their relative activities (%) as compared with isoproterenol were indicated in Table 3. Isoproterenol was purchased from RBI (Research Biochemicals International). The results from Table 3 indicate that the compounds of the present invention have human β3-agonist activities.

Data set [2] deals with male ddy mice. Kind of data set: Toxicity test. The data set is classed as in vivo. The following applies: orally administered to 6-week old male ddy mice at 100 mg/kg.
For data set [3], the system named is transgenic mouse expressing human β3. Kind of data set: Thermogenesis in transgenic mouse expressing human β3. The data set is classed as in vivo. The following applies: orally administered to transgenic mice, 3 to 10 mg/kg. The source says:
Ito, et al. prepared a replacement mouse expressing human β3 in its brown fat by introducing human β3 gene into a mouse whose mouse β3 gene had been knocked out (Ito, et al., Diabetes, vol. 47, pp. 1464-1471 (1998)). A compound of the present invention can be tested for antiobestic activity and antidiabetic activity using a transgenic mouse according to the following procedures.
The thermogenesis can be measured with OXYMAX System (Columbus) according to the method reported by Largis et al. (Drug Development Research, vol. 32, pp. 69-76 (1994)). According to this device, the amount of thermogenesis can be obtained by calculating the calories based on the amount of oxygen consumed and the amount of carbon dioxide generated. After the administration of a medicinal substance, the measurements are carried out for 120 minutes (15 points). The average of the measured values obtained for the latter […] (10 points) is converted into a value per body weight to give the amount of thermogenesis. When a test by repetitive administrations is carried out, a medicinal substance may be administered at a dose once daily, twice daily or the like. The duration of administration may be 1 week, 2 weeks or more. In a test by repetitive administrations, body weight, blood glucose level and insulin level can be monitored with the passage of time as the method of Largis et al. (Drug Development Research, vol. 32, pp. 69-76 (1994). It is also possible that after the completion of the administration, the animal is anatomized to measure the weight of fat tissue or to prepare a section followed by a microscopic examination. Further, the expression level of UCP-1 can be examined according to the method reported by Nagase et al. (J. Clin. Invest., vol. 97, pp. 2898-2904 (1996)).
The present compounds were orally administered to transgenic mice in an amount of from 3 to 10 mg/kg to measure their thermogenesis.

Setting [4] is: cAMP, relative to isoproterenol.

Structures can show the parent of a compound that is named as a salt.

T1 sequence (P13945 whole entry): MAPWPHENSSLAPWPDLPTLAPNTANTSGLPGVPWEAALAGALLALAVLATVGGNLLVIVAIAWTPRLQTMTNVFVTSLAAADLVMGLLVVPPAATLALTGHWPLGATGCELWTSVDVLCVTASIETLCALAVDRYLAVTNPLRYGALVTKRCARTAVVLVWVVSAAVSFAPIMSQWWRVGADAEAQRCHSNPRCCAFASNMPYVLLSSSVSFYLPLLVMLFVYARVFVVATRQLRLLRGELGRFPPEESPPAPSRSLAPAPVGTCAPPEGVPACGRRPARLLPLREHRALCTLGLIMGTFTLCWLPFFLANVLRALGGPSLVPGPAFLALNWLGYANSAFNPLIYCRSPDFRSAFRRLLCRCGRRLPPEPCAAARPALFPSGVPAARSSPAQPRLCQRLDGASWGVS

In the case of `Cc1[nH]c2cc(OCCNCC(O)c3cccc(NS(C)(=O)=O)c3)ccc2c1C.O=C(O)C(F)(F)F` (stereo not shown) [Example 3, N-[3-[2-[2-(2,3-dimethyl-1H-indol-6-yloxy)ethylamino]-1-hydroxyethyl]phenyl]methanesulfonamide trifluoroacetate], the EC50 – broadly, the concentration needed to bring the measured effect to its halfway point – in data set [1] is 8.7 nM. Besides, the Emax in data set [1] (setting [4]) was 100%. Also, the Mortality result in data set [2] is on record as “none of eight animals were found to be dead”.

As to `Cc1[nH]c2cc(OCCNCC(O)c3ccc(Cl)c(NS(C)(=O)=O)c3)ccc2c1C` (stereo not shown) [Example 4, N-[5-[2-[2-(2,3-dimethyl-1H-indol-6-yloxy)ethylamino]-1-hydroxyethyl]-2-chlorophenyl]methanesulfonamide trifluoroacetate], the EC50 in data set [1] came out at 10 nM. In data set [1] (setting [4]), the Emax is 73%.

The compound `CNS(=O)(=O)c1cc(C(O)CNCCOc2ccc3c(C)c(C)[nH]c3c2)ccc1O.O=C(O)C(F)(F)F` (stereo not shown) [Example 9, N-methyl-[5-[2-[2-(2,3-dimethyl-1H-indol-6-yloxy)ethylamino]-1-hydroxyethyl]-2-hydroxy]benzenesulfonamide trifluoroacetate] registered an EC50 in data set [1] of 16 nM. Further, in data set [1] (setting [4]), the “Intrinsic activity* (relative activities as compared with isoproterenol)” value is reported as 62%. Besides, the Mortality result in data set [2] was “none of eight animals were found to be dead”.

For the compound `Cc1[nH]c2cc(OCCNC[C@H](O)c3ccc(Cl)c(NS(C)(=O)=O)c3)ccc2c1C.Cl` [Example 10, (R)-N-[5-[2-[2-(2,3-dimethyl-1H-indol-6-yloxy)ethylamino]-1-hydroxyethyl]-2-chlorophenyl]methanesulfonamide hydrochloride], in data set [3], the “Increase of thermogenesis as compared with the control group” value (shortened to “Increase of thermogenesis”) turned out to be 15%. In addition, the response in data set [1] was half-maximal at 4.5 nM (EC50). The Emax in data set [1] (setting [4]) came out at 78%. Besides, in data set [2], the Mortality result is recorded as “none of eight animals were found to be dead”.

In the case of `Cc1[nH]c2cc(OCCNC[C@H](O)c3cccc(NS(C)(=O)=O)c3)ccc2c1C.Cl` [Example 11, (R)-N-[3-[2-[2-(2,3-dimethyl-1H-indol-6-yloxy)ethylamino]-1-hydroxyethyl]phenyl]methanesulfonamide hydrochloride], in data set [3], the “Increase of thermogenesis” value is reported as 17%. The compound also returned an EC50 in data set [1] of 4.8 nM. Further, the Emax in data set [1] (setting [4]) worked out at 80%.

Consider `CNS(=O)(=O)c1cc([C@@H](O)CNCCOc2ccc3c(C)c(C)[nH]c3c2)ccc1O` [Example 12, N-methyl-(R)-[5-[2-[2-(2,3-dimethyl-1H-indol-6-yloxy)ethylamino]-1-hydroxyethyl]-2-hydroxy]benzenesulfonamide hydrochloride], for which the EC50 in data set [1] was determined as 5.3 nM. In addition, the Emax in data set [1] (setting [4]) turned out to be 71%.

In the case of `Cc1c(-c2ccccc2)[nH]c2cc(OCCNC[C@H](O)c3cccc(NS(C)(=O)=O)c3)ccc12.Cl` [Example 13, (R)-N-[3-[2-[2-(3-methyl-2-phenyl-1H-indol-6-yloxy)ethylamino]-1-hydroxyethyl]phenyl]methanesulfonamide hydrochloride], in data set [3], the “Increase of thermogenesis” value is 15%. It took 14 nM to reach a half-maximal effect in data set [1] (EC50). The Emax in data set [1] (setting [4]) is 96%.

As for `Cc1c(-c2ccccc2)[nH]c2cc(OCCNC[C@H](O)c3ccc(Cl)c(NS(C)(=O)=O)c3)ccc12` [Example 17, (R)-N-[5-[2-[2-(3-methyl-2-phenyl-1H-indol-6-yloxy)ethylamino]-1-hydroxyethyl]-2-chlorophenyl]methanesulfonamide hydrochloride], the EC50 in data set [1] is 4.4 nM. Besides, in data set [1] (setting [4]), the Emax is 94%.
